{"source": "patent US20230295728A1", "about": "“METHODS FOR DIAGNOSING AND TREATING AUTISM” (CENTRE NATIONAL DE LA RECHERCHE SCIENTIFIQUE (CNRS), priority 2020, published 2023)", "key": {"[1]": {"tested_on": "B6D2 and Balb c males", "protocol": "The control group received the same volume (0.1 ml) of 0.9% saline buffer. At 14 days post birth, all offspring (8-12 pups from each litter) were injected (intraperitoneally) with VPA at […] or with saline buffer as a control. […] The F1 to F2 generations were obtained following treatment with the 300 to 500 mg/kg VPA doses. The F1 generation derived from VPA-injected F0 fathers is referred to as VPA-F1, while that from saline-injected fathers is identified as the control. Adult VPA-F1 males were bred with normal females.\nVPA is known to perturb brain formation during early development^22 and to induce characteristic traits of ASD pathology^23,24. […] We treated the animals after birth rather than treating pregnant females as in previous studies^23,24 to avoid the multiple effects on embryonic development generated via the mothers during pregnancy as well as the effects on germ cells. […] In contrast, the injection of pregnant females often leads to an unpredicted arrest of embryonic development and mortality of the mothers either during pregnancy or after the birth of their progenies.\nThe spermatogonial stem cells that will continuously divide and differentiate throughout the life of the male are present, leaving open the possibility that some changes in transcript levels may be transmitted to the next generation."}, "[2]": {"tested_on": "Balb c mice", "assay": "Novel object recognition test", "type": "in vivo, mouse", "text": "The time spent with familiar versus novel objects highlighted a common characteristic of the test group versus the controls. Specifically, it indicated differences in the interest in and recognition of objects. NOR (novel object recognition) is a well-established test in a variety of animal models with multiple protocols. In general, it involves two trials of cognition evaluation based on the spontaneous exploratory conduct of a mouse to measure recognition memory. In the first trial, we used (first-day acquisition) animals that were exposed to two similar objects (small orange boxes) in a chamber for 5 minutes. During the second trial (second-day retention) mice were again exposed to two dissimilar objects for 5 minutes, including one familiar object from the first trial and one new object (blue box). Object recognition was measured (data not shown), according to the difference in the time spent with the familiar object versus the new object."}, "[3]": {"tested_on": "Balb c mice", "assay": "Social interaction test (three chambers)", "type": "in vivo, mouse", "protocol": "To determine whether these interactions varied between the groups of mice, they were filmed for 5 minutes. There are many different ways to follow social interaction. Here, we present the results in a simple way based on conditions in a cage separated into three sections. The mice being tested were placed in the center of the cage and were filmed to calculate the time that they spent close to the empty compartment or the compartment occupied by another mouse. The three chambers were separated by square doors in the two inner walls connecting to the center area. Briefly, the test mouse was introduced in the center to initiate habituation for 5 minutes while blocking access to the side compartments. The first test was conducted by placing an unfamiliar mouse inside an empty wire cage in one of the side chambers to measure the social interaction of the subject mouse without direct social contact. On the other side, there was an empty wire cage. Each test was performed for 10 minutes (data not shown), and the floor surfaces were wiped with 70% ethanol between trials. The accumulated time spent in each compartment and the sociability or social preference indices were measured to quantify the social behavior of the mice."}, "[4]": {"tested_on": "Balb c mice", "assay": "Tail suspension test", "type": "in vivo, mouse", "protocol": "Adult mice (2 months old) (Balb c strain) weighing 25-27 g on the test day. The apparatus used for the tail test consisted of two filter covers each and enabled three mice to be tested simultaneously. Each mouse was suspended by the tail from a hook connected to the strain gauge, to which they were attached with adhesive tape with a length of 18 cm. The duration of each trial was 360 seconds. The tail suspension test was recorded using a SONY HDR-CX240E video recorder. […] An immobility posture indicates the abandonment of struggling and, thus, depression. Periods of agitation and immobility are reported (data not shown)."}, "[5]": {"tested_on": "Balb c mice", "assay": "Glass marble burying test", "type": "in vivo, mouse", "protocol": "According to the described protocols, newly filled bedding cages were prepared with 20 marbles spaced on the bedding surface. Mice were individually caged. After 30 minutes, each mouse was returned to its home cage, and the buried marbles were counted (data not shown). Marbles that were not buried were not included in the analysis."}, "[6]": {"tested_on": "Balb c mice", "assay": "Open field and Morris water tests", "type": "in vivo, mouse", "conditions": "500 mg/kg VPA group (data not shown)"}, "[7]": {"tested_on": "six-microRNAs (miR-19a-3p, miR-361-5p, miR-3613-3p, miR-150-5p, miR-126-3p, miR-499a-5p)", "assay": "miRNA analysis of the mouse models (q-PCR of blood, sperm, hippocampus RNA)", "type": "in vivo", "conditions": "VPA-treated mice (500 mg/kg)", "protocol": "Routine qPCR for miR detection and validation^41 was performed with the miScript PCR control set (catalog number 218380; Qiagen, Germany). The miScript™ miRNA PCR Array Human Serum & Plasma 384HC (Cat No: 331223) was used in this study. The Human Serum & Plasma 384HC miScript miRNA PCR Array profiles the expression of 372 miRNAs) that are detectable in serum and plasma using the miScript PCR system. SNORD61, SNORD68, SNORD72, SNORD95, SNORD96A, RNU6-2, miRTC, miRTC, and PPC were used as controls. The data were normalized using the 2^−ΔΔct method.\nTotal RNA was prepared from mouse tissues (blood, hippocampus, sperm) according to published procedures^42. Sperm cells were isolated from the epididymis, and floating sperm were recovered by successive washing (PBS) and centrifugation at 3000 rpm. Briefly, RNAs were extracted from all tissues (hippocampus, blood and sperm cells) via a standard protocol. Qiazol Lysis Buffer (Cat. No: 79306; Qiagen, Texas, USA) was used in accordance with the manufacturer's instructions. The Qiazol-extracted aqueous phase was ethanol precipitated, followed by washing twice with 70% ethanol. To remove the remaining DNA, the PCR samples were treated with DNase according to the manufacturer's instructions."}}, "note": "“Also recorded” adds a separate entry of the source.", "data": [{"smiles": "CCCC(CCC)C(=O)O", "note": "[VPA, valproic acid]", "values": [{"measurement": "sudden mortality", "setting": "[1]; 500 mg/kg i.p., males", "result": "without sudden mortality"}, {"measurement": "mortality / lethality at high doses", "setting": "[1]; 600-700 mg/kg, one i.p. injection at 14 days post birth, both mouse lines", "result": "dramatic lethality; also recorded: sudden dramatic mortality; also recorded: lethal"}, {"measurement": "breeding behaviour, fertility, testes", "setting": "[1]; mouse, in vivo, 500 mg/kg", "result": "a few males became aggressive toward females during breeding, showed reduced fertility and smaller testes"}, {"measurement": "time spent with familiar versus novel objects", "setting": "[2]; 400 mg/kg, only for familiar objects", "result": "Some effect was detectable"}, {"measurement": "time spent with familiar versus novel objects", "setting": "[2]; 500 mg/kg, treated males", "result": "lost interest and spent the same amount of time with the two objects but spent less time overall with both objects"}, {"measurement": "overall activity in social interaction tests", "setting": "[3]; 500 mg/kg VPA group", "result": "decrease in overall activity"}, {"measurement": "time spent close to chamber with mouse versus empty chamber", "setting": "[3]; 500 mg/kg, treated males", "result": "showed less interest and spent an even smaller amount of time close to the empty cage"}, {"measurement": "immobility / struggle-related behaviour", "setting": "[4]; 500 mg/kg, F0 treated males", "result": "a significant change that indicated abandonment and depression was observed"}, {"measurement": "immobility / struggle-related behaviour", "setting": "[4]; F1 generation of VPA-treated fathers, compared to F0", "result": "the reverse effect was observed"}, {"measurement": "marbles buried in 30 minutes", "setting": "[5]; 500 mg/kg VPA F1 generation", "result": "the same behavior as in the founders, with significantly less activity"}, {"measurement": "marbles buried in 30 minutes", "setting": "[5]; 500 mg/kg, treated males", "result": "markedly less interest in burying marbles"}, {"measurement": "overall activity", "setting": "[6]", "result": "decrease in the overall activity as well by half"}, {"measurement": "expression of the six-microRNAs", "setting": "[7]", "result": "decreases not only in the blood but also in the sperm and hippocampus"}]}]}
